{
  "source": "patent US20220195432A9",
  "about": "(priority 2020, published 2022)",
  "key": {"MHV [1]": {"system": "MHV", "format": "in vivo", "settings": "IFNar knockout mice infected with MHV, paquinimod nasal drop group, FIG. 17"}, "IAV": {"system": "IAV", "design": "species or system mice", "settings": "mouse, in vivo"}, "MHV [2]": {"system": "MHV", "format": "in vivo, mice"}, "SARS-CoV2": {"system": "SARS-CoV2", "experiment": "SARS-CoV2 infection of human ACE2 mice, paquinimod nasal drop group versus control", "format": "in vivo"}, "[3]": {"settings": "MHV-infected lung tissues of IFNar knockout mice, FIG. 18"}, "[4]": {"settings": "SARS-CoV2 pneumonia animal model"}},
  "data": [
    {"compound": "CCc1cccc2c1c(O)c(C(=O)N(CC)c1ccccc1)c(=O)n2C", "note": "[paquinimod]", "values": [
      {"measurement": "survival rate", "setting": "MHV [1]", "value": "increased survival rate"},
      {"measurement": "survival rate", "setting": "IAV", "value": "no significant difference"},
      {"measurement": "inflammation and lung damage caused by inflammation", "setting": "MHV [2]; [3]", "value": "reducing inflammation and lung damage"},
      {"measurement": "lung S100A8 gene expression", "setting": "MHV [2]; [3]", "value": "not up-regulated"},
      {"measurement": "activation of neutrophils caused by coronavirus infection", "setting": "MHV [2]; coronavirus-infected mice", "value": "inhibit the activation of neutrophils"},
      {"measurement": "replication of MHV", "setting": "MHV [2]; lung tissues of IFNar knockout mice, FIG. 18", "value": "inhibiting replication"},
      {"measurement": "replication of SARS-CoV-2", "setting": "SARS-CoV2; FIG. 18", "value": "inhibiting replication"},
      {"measurement": "inflammation level", "setting": "SARS-CoV2; [4]", "value": "decreasing the inflammation level"},
      {"measurement": "virus titer in tissues", "setting": "SARS-CoV2; [4]", "value": "inhibits the virus titer in tissues"}
    ]}
  ]
}
